Data as given in patent US20220062296A1, “COMBINATIONS OF GABAA ALPHA 5 AGONISTS AND SV2A INHIBITORS AND METHODS OF USING IN THE TREATMENT OF COGNITIVE IMPAIRMENT” (AGENEBIO, INC., priority 2020, published 2022).

Columns and labels:
Format in all cases: in vivo, rat
aged-impaired rats [1] = test: Radial arm maze with 5-hr delay, acute Compound 1 via PO; details: Compound 1 10 mg/kg PO, vs vehicle
Method: Food-deprived aged rats maintained at approximately 85% free-feeding weights were tested for their hippocampal-dependent memory in a radial arm maze task under varying doses of Compound 1 (a GABAA α5 receptor agonist):
The radial arm maze apparatus used consisted of eight equidistantly spaced arms. An elevated maze arm (7 cm width×75 cm length) projected from each facet of an octagonal center platform (30 cm diameter, 51.5 cm height). Clear side walls on the arms were 10 cm high and are angled at 65° to form a trough. A food well (4 cm diameter, 2 cm deep) was located at the distal end of each arm. Froot Loops™ (Kellogg Company) were used as rewards. Blocks constructed of Plexiglass™ (30 cm height×12 cm width) could be positioned to prevent entry to any arm. Numerous extra maze cues surrounding the apparatus were also provided. The rats were initially subjected to pre-training (Chappell et al., 1998). Pre-training consisted of a habituation phase, a training phase on the standard win-shift task and another training phase in which a progressively longer delay was imposed between presentation of a subset of arms designated by the experimenter (five arms available and three arms blocked) and completion of the eight-arm win-shift task (i.e., with all eight arms available).
In the habituation phase, rats were familiarized to the maze for a 10-minute session on several days. […]

aged-impaired rats [2] = test: Water maze probe test, acute and chronic Compound 1
Text: Rats were trained and tested in a novel water maze environment to assess the effect of the treatments. The water maze used here was housed in a different room and was surrounded by curtains with a novel set of patterns relative to the maze used for initial assessment of cognitive status. The training and testing protocol used was identical to the spatial learning-activated protocol described in Haberman et al., (2008, Proceedings of the National Academy of Sciences USA, 105, 10601-10606). The task required rats to swim to a […] escape platform at a fixed location in the presence of spatial cues for 8 training trials with an inter-trial interval of 8 min. An hour after the last training trial, rats were given a probe test in the absence of the escape platform (free swim) to assess the memory of the platform location as measured by time spent searching at the target location.
To assess the acute and chronic effects of Compound 1 treatment, rats received 15-16 days of drug injections with assessment on the water maze on the first day (acute effect) and last day (chronic effect) of treatment. Different surrounding spatial cues and escape location in the water maze were used for the initial and subsequent assessments. Compound 1 was given at 10 mg/kg using intraperitoneal injection (IP) at a volume of 1 ml/kg. […]

aged-impaired rats [3] = test: Radial arm maze, Compound 1 IP alone and in combination with levetiracetam

COCc1nnc2n1Cc1c(C#Cc3cnc(OC)s3)ncn1-c1ccc(Cl)cc1-2 [Compound 1]
number of errors in the radial arm maze (aged-impaired rats [1]): fewer errors
time in the target quadrant of the Morris Water Maze (aged-impaired rats [2]; acute, Compound 1 10 mg/kg IP (first day)): spent more time in the target quadrant
time in the target quadrant of the Morris Water Maze (aged-impaired rats [2]; chronic, Compound 1 10 mg/kg IP (last day of 15-16 days)): spent more time in the target quadrant
efficacy of Compound 1 on its own in the radial arm maze (aged-impaired rats [3]; 2.5 mg/kg IP): subtherapeutic
efficacy of Compound 1 on its own in the radial arm maze (aged-impaired rats [3]; 5 mg/kg IP): subtherapeutic
